Assay results reported in PMC6522510 (Nature Communications, 2019).
Where two headings read alike, the source gives them in different places.

How the values were obtained:
Parameters in all cases: species or system AML cell lines (8); Primary HTS, single concentration about 10 uM, Cell Titer Glo viability; log10 luminescence, per cent inhibition relative to cycloheximide control
Conditions in all cases: 72 h, relative to cycloheximide control, log10 luminescence, inhibitor
M07e = test system: M07e
CMK = test system: CMK
CHRF288-11 = test system: CHRF288-11
U937 = test system: U937
ML-2 = test system: ML-2
CMS = test system: CMS
MV4-11 = test system: MV4-11
MOLM-13 = test system: MOLM-13

Row | SMILES | M07e %inh (M07e) | CMK %inh (CMK) | CHRF288-11 %inh (CHRF288-11) | U937 %inh (U937) | ML-2 %inh (ML-2) | CMS %inh (CMS) | MV4-11 %inh (MV4-11) | MOLM-13 %inh (MOLM-13) | M07e %inh (M07e; M07e %inh, 10 µM) | CMK %inh (CMK; CMK %inh, 10 µM) | CHRF288-11 %inh (CHRF288-11; CHRF288-11 %inh, 10 µM) | U937 %inh (U937; U937 %inh, 10 µM) | ML-2 %inh (ML-2; ML-2 %inh, 10 µM) | CMS %inh (CMS; CMS %inh, 10 µM) | MV4-11 %inh (MV4-11; MV4-11 %inh, 10 µM) | MOLM-13 %inh (MOLM-13; MOLM-13 %inh, 10 µM)
1 | O=C1NC(=NCc2ccccc2Br)S/C1=C\c1ccc2ncccc2c1 [SJ000581153-1] | 7.782% | 1.742% | 2.479% | 5.903% | 3.418% | 1.226% | 3.118% | 2.882% |  |  |  |  |  |  |  | 
2 | Cn1cc(C2=C(c3cn(C)c4cc(N)ccc34)C(=O)NC2=O)c2ccccc21 [SJ000581154-1] | 38.42% | 105.6% | 40.91% | 39.79% | 25.1% | 49.07% | 66.53% | 77.98% |  |  |  |  |  |  |  | 
3 | CCc1c(C)nc2sc3c(N)ncnc3c2c1C [SJ000581155-1] | 3.066% | 26.14% | 5.014% | 2.164% | 1.162% | 6.427% | 0.965% | 58.52% |  |  |  |  |  |  |  | 
4 | Nc1c(C(=O)c2cccc(-c3ccc[n+]([O-])c3)c2)cnn1-c1ccc(F)cc1F [SJ000581156-1] | 5.956% | 6.727% | 0.7431% | 3.963% | 2.597% | -0.9836% | 2.306% | 3.379% |  |  |  |  |  |  |  | 
5 | CC(CO)Nc1cc(-c2[nH]c3cccnc3c2-c2ccc(F)cc2)ccn1 (stereo not shown) [SJ000581157-1] | 3.935% | 13.38% | 7.035% | 3.658% | 3.05% | 7.57% | 5.71% | 1.967% |  |  |  |  |  |  |  | 
6 | COc1cc[nH]c1/C=C1\C(=O)Nc2ccc(F)c(C#C[C@@H](O)[C@@H](N)[C@@H](C)O)c21 [SJ000581159-1] | 87.08% | 112.6% | 61.95% | 83.42% | 60.99% | 97.96% | 92.6% | 95.78% |  |  |  |  |  |  |  | 
7 | Cn1cc(C2=C(c3ccc(N)cc3)C(=O)NC2=O)c2ccccc21 [SJ000581160-1] | 7.926% | 8.525% | 1.792% | 1.651% | 2.229% | 6.332% | 3.731% | 6.461% |  |  |  |  |  |  |  | 
8 | Cc1ccccc1C1=C(c2cn(C)c3ccccc23)C(=O)NC1=O [SJ000581162-1] | 5.581% | 3.937% | 8.356% | 0.403% | 3.854% | 6.978% | 6.408% | 0.3788% |  |  |  |  |  |  |  | 
9 | Cn1c(=O)c(-c2ccccc2Cl)cc2cnc(NC3CCOCC3)nc21 [SJ000581163-1] | 8.813% | 15.25% | 6.112% | 4.292% | 1.667% | 7.391% | 5.265% | 7.929% |  |  |  |  |  |  |  | 
10 | COc1cc(F)c(F)c(F)c1C(=O)c1cnc(NC2CCN(S(C)(=O)=O)CC2)nc1N [SJ000581164-1] | 35.86% | 59.95% | 47.57% | 40.5% | 21.95% | 23.31% | 22.69% | 83.36% |  |  |  |  |  |  |  | 
11 | Cn1cc(C2=C(c3cn(CCCCCN)c4ccccc34)C(=O)NC2=O)c2ccccc21 [SJ000581165-1] | 4.895% | 0.6124% | 2.441% | 0.4783% | 1.663% | 0.9818% | 1.637% | 2.139% |  |  |  |  |  |  |  | 
12 | O=C1OC(=O)C(c2c[nH]c3ccccc23)=C1c1c[nH]c2ccccc12 [SJ000581166-1] | -1.376% | 0.5161% | 5.422% | 1.32% | 2.957% | 5.505% | 1.035% | 3.376% |  |  |  |  |  |  |  | 
13 | NC1=NC(=O)/C(=C/c2ccc3ncccc3c2)S1 [SJ000581167-1] | -0.544% | 14.91% | 7.843% | 10.35% | 6.393% | 1.297% | 20.86% | 12.5% |  |  |  |  |  |  |  | 
14 | COc1ccc(N2Cc3cnc(Nc4ccccc4)nc3N([C@@H]3CC[C@@H](O)C3)C2=O)cc1 [SJ000581169-1] | 3.499% | 31.32% | 84.91% | 3.756% | 3.259% | -0.5577% | 9.017% | 15.09% |  |  |  |  |  |  |  | 
15 | CN1CCN(CCc2cccc(C(=O)c3cnn(-c4ccc(F)cc4)c3N)c2)CC1 [SJ000581170-1] | 1.993% | 6.346% | -2.499% | 7.701% | 2.973% | 1.769% | 3.349% | 4.249% |  |  |  |  |  |  |  | 
16 | Cn1c(=O)c(Oc2ccccc2)cc2cnc(NC3CCOCC3)nc21 [SJ000581171-1] | 1.8% | 8.741% | 9.708% | 5.834% | 2.493% | 6.487% | 4.76% | 4.705% |  |  |  |  |  |  |  | 
17 | Nc1c(C(=O)c2cccc(-c3ccncc3)c2)cnn1-c1ccc(F)cc1 [SJ000581172-1] | 6.562% | 6.56% | -2.059% | 13.25% | 3.419% | 2.678% | 2.351% | 5.84% |  |  |  |  |  |  |  | 
18 | Cc1[nH]nc2c1N=C(c1ccccc1Cl)c1cc([N+](=O)[O-])ccc1N2 [SJ000581173-1] | 57.3% | 116.1% | 37.73% | 91.37% | 56.78% | 91.81% | 86.62% | 62.4% |  |  |  |  |  |  |  | 
19 | Nc1c(C(=O)c2ccc(C#CCN3CCOCC3)cc2)cnn1-c1ccc(F)cc1 [SJ000581175-1] | -0.05766% | 5.964% | -0.8034% | 8.015% | -0.5007% | 1.749% | 6.7% | 6.812% |  |  |  |  |  |  |  | 
20 | CNCCCn1cc(C2=C(c3cn(C)c4ccccc34)C(=O)NC2=O)c2ccccc21 [SJ000581176-1] | 23.08% | 37.79% | 23.82% | 9.304% | 2.284% | 6.195% | 44.21% | 86.21% |  |  |  |  |  |  |  | 
21 | CNc1ncc2cc(Oc3ccc(F)cc3F)c(=O)n(C)c2n1 [SJ000581177-1] | -0.008012% | 4.145% | -5.721% | 2.229% | 0.6187% | -2.096% | 2.766% | 3.528% |  |  |  |  |  |  |  | 
22 | COc1cccc(F)c1C(=O)c1cnc(NC2CCN(S(C)(=O)=O)CC2)nc1N [SJ000581178-1] | 26.23% | 27.9% | 12.21% | 27.27% | 11.75% | 16.64% | 20.51% | 39.82% |  |  |  |  |  |  |  | 
23 | CCCC[C@@H](C=O)NC(=O)[C@H](CC(C)C)NC(=O)OCc1ccccc1 [SJ000755074-1, CALPEPTIN] |  |  |  |  |  |  |  |  | 0.9114% | -0.01297% | 18.64% | 2.282% | -0.6331% | 3.296% | 4.895% | 2.613%
